Assay: refractive index (Na D-line) (dimensionless); xn = mol fraction of the nth substance listed
Conditions: 100 kPa, Liquid, Standard Abbe refractometry

c1ccncc1 [pyridine] + CCC(C)=O
refractive index
Conditions	288.15 K	293.15 K	298.15 K	303.15 K	308.15 K	313.15 K	318.15 K	323.15 K	328.15 K	333.15 K
x1 = 0.1006	1.39357	1.39094	1.3883	1.38577	1.38311	1.38031	1.37775	1.37505	1.37234	1.36942
x1 = 0.2019	1.40586	1.40321	1.40056	1.39791	1.39527	1.3926	1.38992	1.38721	1.38453	1.38158
x1 = 0.3002	1.41813	1.41548	1.41282	1.41015	1.40751	1.40483	1.40214	1.39946	1.39666	1.39394
x1 = 0.4004	1.43104	1.42836	1.42568	1.42298	1.4203	1.4176	1.41489	1.41218	1.40942	1.40669
x1 = 0.4999	1.44407	1.44138	1.43868	1.43597	1.43325	1.43052	1.42779	1.42502	1.42228	1.41944
x1 = 0.597	1.45674	1.45401	1.4513	1.44857	1.44585	1.44311	1.44039	1.43765	1.43488	1.43213
x1 = 0.6998	1.4705	1.46776	1.46502	1.46227	1.45952	1.45678	1.45404	1.4513	1.44853	1.44586
x1 = 0.7945	1.48331	1.48055	1.47779	1.47504	1.47226	1.4695	1.46675	1.46402	1.46124	1.45866
x1 = 0.8962	1.49734	1.49455	1.49176	1.48899	1.4862	1.48343	1.48066	1.47793	1.47513	1.4726
x1 = 1	1.51204	1.50923	1.50636	1.50355	1.50076	1.49796	1.49522	1.49245	1.48962	1.48708

OCCCO [propan-1,3-diol] + CCC(C)=O
refractive index
Conditions	288.15 K	293.15 K	298.15 K	303.15 K	308.15 K	313.15 K	318.15 K	323.15 K	328.15 K	333.15 K
x1 = 0.1052	1.38816	1.3857	1.38318	1.38072	1.3783	1.37575	1.37324	1.3706	1.36798	1.36512
x1 = 0.2004	1.39411	1.39177	1.38937	1.38701	1.38469	1.38226	1.37988	1.37728	1.37479	1.37205
x1 = 0.3002	1.40019	1.39791	1.39561	1.39336	1.39119	1.38891	1.38656	1.38422	1.38186	1.3793
x1 = 0.4003	1.40646	1.4043	1.40216	1.40002	1.39791	1.39575	1.39357	1.39132	1.38903	1.38657
x1 = 0.4999	1.41261	1.41059	1.40857	1.40654	1.40452	1.40246	1.40036	1.39822	1.39608	1.3938
x1 = 0.5992	1.41868	1.4168	1.4149	1.41298	1.41104	1.4091	1.40712	1.40508	1.40306	1.40096
x1 = 0.6992	1.42474	1.42295	1.42116	1.41936	1.41754	1.41566	1.41382	1.41196	1.41006	1.4081
x1 = 0.7989	1.43046	1.42881	1.42712	1.42544	1.42374	1.42201	1.4203	1.41857	1.4168	1.41497
x1 = 0.8998	1.43588	1.43434	1.43277	1.43123	1.42967	1.42812	1.42654	1.42496	1.42335	1.42166
x1 = 1	1.44073	1.43932	1.43792	1.43654	1.43513	1.43375	1.43232	1.43087	1.42945	1.42803

Source: the NIST ThermoML archive (doi:10.1016/j.fluid.2016.02.031)
